From PubChem BioAssay AID1918946 (Molecular Pharmacology Branch, DTP, NCI, 2023)

Test system: 885512-296-R-J2-PDC complex spheroid viability
Assay: Anticancer human tumor 885512-296-R-J2-PDC patient-derived breast carcinoma cell line growth inhibition
Settings: for IC50: curve of first compound; for viability, T/C: stronger effect = lower value
In short: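 Drug combinations with the LSD1 inhibitor iadademstat tested on tumor cells co-cultured as spheroids with endothelial cells and mesenchymal stem cells. Concentrations descended in half-log increments from clinical Cmax or 10 microM.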

[1] = second compound 0.1 µM, first compound 0.0316 µM
[2] = second compound 0.1 µM, first compound 0.1 µM
[3] = second compound 0.1 µM, first compound 0.316 µM
[4] = second compound 0.1 µM, first compound 1 µM
[5] = second compound 0.1 µM, first compound 3.16 µM
[6] = second compound 0.1 µM, first compound 10 µM
[7] = second compound 0.316 µM, first compound 0.0316 µM
[8] = second compound 0.316 µM, first compound 0.1 µM
[9] = second compound 0.316 µM, first compound 0.316 µM
[10] = second compound 0.316 µM, first compound 1 µM
[11] = second compound 0.316 µM, first compound 3.16 µM
[12] = second compound 0.316 µM, first compound 10 µM
[13] = second compound 1 µM, first compound 0.0316 µM
[14] = second compound 1 µM, first compound 0.1 µM
[15] = second compound 1 µM, first compound 0.316 µM
[16] = second compound 1 µM, first compound 1 µM
[17] = second compound 1 µM, first compound 3.16 µM
[18] = second compound 1 µM, first compound 10 µM
[19] = second compound 3.16 µM, first compound 0.0316 µM
[20] = second compound 3.16 µM, first compound 0.1 µM
[21] = second compound 3.16 µM, first compound 0.316 µM
[22] = second compound 3.16 µM, first compound 1 µM
[23] = second compound 3.16 µM, first compound 3.16 µM
[24] = second compound 3.16 µM, first compound 10 µM
[25] = second compound 10 µM, first compound 0.0316 µM
[26] = second compound 10 µM, first compound 0.1 µM
[27] = second compound 10 µM, first compound 0.316 µM
[28] = second compound 10 µM, first compound 1 µM
[29] = second compound 10 µM, first compound 3.16 µM
[30] = second compound 10 µM, first compound 10 µM
[31] = second compound 0.1 µM, first compound 0.00949 µM
[32] = second compound 0.1 µM, first compound 0.03 µM
[33] = second compound 0.1 µM, first compound 0.0949 µM
[34] = second compound 0.1 µM, first compound 0.3 µM
[35] = second compound 0.316 µM, first compound 0.00949 µM
[36] = second compound 0.316 µM, first compound 0.03 µM
[37] = second compound 0.316 µM, first compound 0.0949 µM
[38] = second compound 0.316 µM, first compound 0.3 µM
[39] = second compound 1 µM, first compound 0.00949 µM
[40] = second compound 1 µM, first compound 0.03 µM
[41] = second compound 1 µM, first compound 0.0949 µM
[42] = second compound 1 µM, first compound 0.3 µM
[43] = second compound 3.16 µM, first compound 0.00949 µM
[44] = second compound 3.16 µM, first compound 0.03 µM
[45] = second compound 3.16 µM, first compound 0.0949 µM
[46] = second compound 3.16 µM, first compound 0.3 µM
[47] = second compound 10 µM, first compound 0.00949 µM
[48] = second compound 10 µM, first compound 0.03 µM
[49] = second compound 10 µM, first compound 0.0949 µM
[50] = second compound 10 µM, first compound 0.3 µM
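Also: spheroids exposed to agents for 7 days before viability read.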

## CC1(C)CCC(CN2CCN(c3ccc(C(=O)NS(=O)(=O)c4ccc(NCC5CCOCC5)c([N+](=O)[O-])c4)c(Oc4cnc5[nH]ccc5c4)c3)CC2)=C(c2ccc(Cl)cc2)C1 + NC1CCC(NC2CC2c2ccccc2)CC1
Second compound 0.1 µM
  IC50: 4990 nM
Second compound 0.316 µM
  IC50: 4830 nM
Second compound 1 µM
  IC50: 4900 nM
Second compound 3.16 µM
  IC50: 4940 nM
Second compound 10 µM
  IC50: 3840 nM
[1]
  viability, T/C: 106%
[2]
  viability, T/C: 109%
[3]
  viability, T/C: 115%
[4]
  viability, T/C: 98.9%
[5]
  viability, T/C: 72.8%
[6]
  viability, T/C: 15.8%
[7]
  viability, T/C: 112%
[8]
  viability, T/C: 116%
[9]
  viability, T/C: 120%
[10]
  viability, T/C: 90.1%
[11]
  viability, T/C: 72.2%
[12]
  viability, T/C: 16%
[13]
  viability, T/C: 110%
[14]
  viability, T/C: 115%
[15]
  viability, T/C: 116%
[16]
  viability, T/C: 93.4%
[17]
  viability, T/C: 73.1%
[18]
  viability, T/C: 14.7%
[19]
  viability, T/C: 111%
[20]
  viability, T/C: 107%
[21]
  viability, T/C: 114%
[22]
  viability, T/C: 98.7%
[23]
  viability, T/C: 71%
[24]
  viability, T/C: 17.4%
[25]
  viability, T/C: 84.3%
[26]
  viability, T/C: 82.8%
[27]
  viability, T/C: 77.9%
[28]
  viability, T/C: 87.4%
[29]
  viability, T/C: 56.2%
[30]
  viability, T/C: 19.9%

## CC1COCCN1c1cc(C2(S(C)(=N)=O)CC2)nc(-c2ccnc3[nH]ccc23)n1 (stereo not given) + NC1CCC(NC2CC2c2ccccc2)CC1
Second compound 0.1 µM
  IC50: 166 nM
Second compound 0.316 µM
  IC50: 155 nM
Second compound 1 µM
  IC50: 166 nM
Second compound 3.16 µM
  IC50: 119 nM
Second compound 10 µM
  IC50: 124 nM
[1]
  viability, T/C: 98.8%
[2]
  viability, T/C: 77.3%
[3]
  viability, T/C: 15.1%
[4]
  viability, T/C: 7.78%
[5]
  viability, T/C: 9.98%
[6]
  viability, T/C: 4.57%
[7]
  viability, T/C: 94.7%
[8]
  viability, T/C: 71.4%
[9]
  viability, T/C: 15.3%
[10]
  viability, T/C: 4.43%
[11]
  viability, T/C: 4.53%
[12]
  viability, T/C: 7.27%
[13]
  viability, T/C: 98.8%
[14]
  viability, T/C: 75.8%
[15]
  viability, T/C: 17.4%
[16]
  viability, T/C: 5.72%
[17]
  viability, T/C: 7%
[18]
  viability, T/C: 4.61%
[19]
  viability, T/C: 108%
[20]
  viability, T/C: 56.5%
[21]
  viability, T/C: 13.4%
[22]
  viability, T/C: 5.73%
[23]
  viability, T/C: 4.8%
[24]
  viability, T/C: 4.21%
[25]
  viability, T/C: 84.5%
[26]
  viability, T/C: 59.1%
[27]
  viability, T/C: 9.91%
[28]
  viability, T/C: 3.2%
[29]
  viability, T/C: 3.14%
[30]
  viability, T/C: 1.66%

## CCN(c1cc(-c2ccc(CN3CCOCC3)cc2)cc(C(=O)NCc2c(C)cc(C)[nH]c2=O)c1C)C1CCOCC1 + NC1CCC(NC2CC2c2ccccc2)CC1
Second compound 0.1 µM
  IC50: 1820 nM
Second compound 0.316 µM
  IC50: 1740 nM
Second compound 1 µM
  IC50: 2250 nM
Second compound 3.16 µM
  IC50: 2080 nM
Second compound 10 µM
  IC50: > 3000 nM
[31]
  viability, T/C: 118%
[32]
  viability, T/C: 135%
[33]
  viability, T/C: 104%
[34]
  viability, T/C: 117%
Second compound 0.1 µM, first compound 0.949 µM
  viability, T/C: 98.6%
Second compound 0.1 µM, first compound 3 µM
  viability, T/C: 12.3%
[35]
  viability, T/C: 131%
[36]
  viability, T/C: 114%
[37]
  viability, T/C: 127%
[38]
  viability, T/C: 94.5%
Second compound 0.316 µM, first compound 0.949 µM
  viability, T/C: 79.1%
Second compound 0.316 µM, first compound 3 µM
  viability, T/C: 26.1%
[39]
  viability, T/C: 135%
[40]
  viability, T/C: 107%
[41]
  viability, T/C: 122%
[42]
  viability, T/C: 87.2%
Second compound 1 µM, first compound 0.949 µM
  viability, T/C: 80.2%
Second compound 1 µM, first compound 3 µM
  viability, T/C: 39.9%
[43]
  viability, T/C: 141%
[44]
  viability, T/C: 125%
[45]
  viability, T/C: 106%
[46]
  viability, T/C: 102%
Second compound 3.16 µM, first compound 0.949 µM
  viability, T/C: 78.3%
Second compound 3.16 µM, first compound 3 µM
  viability, T/C: 35.8%
[47]
  viability, T/C: 110%
[48]
  viability, T/C: 95.4%
[49]
  viability, T/C: 85.8%
[50]
  viability, T/C: 82.7%
Second compound 10 µM, first compound 0.949 µM
  viability, T/C: 78.5%
Second compound 10 µM, first compound 3 µM
  viability, T/C: 55%

## Nc1ncn(C2CC(O)C(CO)S2)c(=O)n1 (stereo not given) + NC1CCC(NC2CC2c2ccccc2)CC1
Second compound 0.1 µM
  IC50: 5.37 nM
Second compound 0.316 µM
  IC50: 4.73 nM
Second compound 1 µM
  IC50: 4.84 nM
Second compound 3.16 µM
  IC50: 4.82 nM
Second compound 10 µM
  IC50: 2.75 nM
Second compound 0.1 µM, first compound 0.000949 µM
  viability, T/C: 81.1%
Second compound 0.1 µM, first compound 0.003 µM
  viability, T/C: 67.9%
[31]
  viability, T/C: 32.5%
[32]
  viability, T/C: 15.5%
[33]
  viability, T/C: 12.6%
[34]
  viability, T/C: 11.3%
Second compound 0.316 µM, first compound 0.000949 µM
  viability, T/C: 93%
Second compound 0.316 µM, first compound 0.003 µM
  viability, T/C: 59%
[35]
  viability, T/C: 36.4%
[36]
  viability, T/C: 20.6%
[37]
  viability, T/C: 12.4%
[38]
  viability, T/C: 10%
Second compound 1 µM, first compound 0.000949 µM
  viability, T/C: 99.2%
Second compound 1 µM, first compound 0.003 µM
  viability, T/C: 62.2%
[39]
  viability, T/C: 32.8%
[40]
  viability, T/C: 17.3%
[41]
  viability, T/C: 11.5%
[42]
  viability, T/C: 6.83%
Second compound 3.16 µM, first compound 0.000949 µM
  viability, T/C: 83%
Second compound 3.16 µM, first compound 0.003 µM
  viability, T/C: 61.6%
[43]
  viability, T/C: 33.3%
[44]
  viability, T/C: 18.8%
[45]
  viability, T/C: 12.4%
[46]
  viability, T/C: 8.51%
Second compound 10 µM, first compound 0.000949 µM
  viability, T/C: 79.8%
Second compound 10 µM, first compound 0.003 µM
  viability, T/C: 47.5%
[47]
  viability, T/C: 23.8%
[48]
  viability, T/C: 11.2%
[49]
  viability, T/C: 9.62%
[50]
  viability, T/C: 6.05%

## O=C(C=Cn1cnc(-c2cc(C(F)(F)F)cc(C(F)(F)F)c2)n1)NNc1cnccn1 + NC1CCC(NC2CC2c2ccccc2)CC1
Second compound 0.1 µM
  IC50: < 3.16 nM
Second compound 0.316 µM
  IC50: < 3.16 nM
Second compound 1 µM
  IC50: < 3.16 nM
Second compound 3.16 µM
  IC50: < 3.16 nM
Second compound 10 µM
  IC50: < 3.16 nM
Second compound 0.1 µM, first compound 0.00316 µM
  viability, T/C: 34%
Second compound 0.1 µM, first compound 0.01 µM
  viability, T/C: 7.13%
[1]
  viability, T/C: 7%
[2]
  viability, T/C: 5.05%
[3]
  viability, T/C: 5.84%
[4]
  viability, T/C: 8.68%
Second compound 0.316 µM, first compound 0.00316 µM
  viability, T/C: 36.5%
Second compound 0.316 µM, first compound 0.01 µM
  viability, T/C: 6.98%
[7]
  viability, T/C: 4.07%
[8]
  viability, T/C: 1.21%
[9]
  viability, T/C: 8.2%
[10]
  viability, T/C: 6.75%
Second compound 1 µM, first compound 0.00316 µM
  viability, T/C: 47.5%
Second compound 1 µM, first compound 0.01 µM
  viability, T/C: 6.6%
[13]
  viability, T/C: 1.46%
[14]
  viability, T/C: 1.03%
[15]
  viability, T/C: 3.55%
[16]
  viability, T/C: 0.74%
Second compound 3.16 µM, first compound 0.00316 µM
  viability, T/C: 26.8%
Second compound 3.16 µM, first compound 0.01 µM
  viability, T/C: 6.99%
[19]
  viability, T/C: 1.67%
[20]
  viability, T/C: 0.99%
[21]
  viability, T/C: 0.76%
[22]
  viability, T/C: 3.58%
Second compound 10 µM, first compound 0.00316 µM
  viability, T/C: 26.8%
Second compound 10 µM, first compound 0.01 µM
  viability, T/C: 7.4%
[25]
  viability, T/C: 1.17%
[26]
  viability, T/C: 0.87%
[27]
  viability, T/C: 2.75%
[28]
  viability, T/C: 0.69%
